According to US20240287066A1, “Crystalline Form of Sotorasib” (Sandoz AG, priority 2021, published 2024):
Read-outs that look alike come from different tables or passages of the source.

Experiments:
[1] = Gravimetric moisture sorption (GMS) of sotorasib Form A; format: physicochemical
Method: Gravimetric moisture sorption was performed with an SPSx-1μ moisture sorption analyzer (ProUmid, Ulm). The measurement cycle was started at ambient relative humidity (RH) of 40%. RH was then decreased to 5% in 5% steps, followed by a further decrease to 3% and to 0%. […] Finally, RH was increased to ambient relative humidity of 40% in 5% steps. The time per step was set to a minimum of 2 hours and a maximum of 6 hours. If an equilibrium condition with a constant mass of ±0.01% within 1 hour was reached before the maximum time for all examined samples the sequential humidity step was applied before the maximum time of 6 hours. If no equilibrium was achieved the consecutive humidity step was applied after the maximum time of 6 hours. The temperature was (25±0.1)° C.

[2] = Stress stability (temperature and humidity stress, PXRD read-out); format: physicochemical; settings: for solid form by PXRD after stress storage: 30 weeks, open stored in glass vials
Source text: Sotorasib Form A of the present invention was subjected to various temperature and humidity stress conditions for 30 weeks as outlined in Table 3 below. The samples were open stored in glass vials.

[3] = Powder dissolution in acetate buffer pH 4.5 and phosphate buffer pH 6.8; format: physicochemical; settings: for solubility compared to crystalline Form I (in words): 15 minutes to 24 hours; for phase change by PXRD during the dissolution experiments: acetate buffer pH 4.5 and phosphate buffer pH 6.8, 37° C., up to 24 hours
Method: Powder dissolution experiments were carried out at a temperature of 37° C. in acetate buffer pH 4.5 and phosphate buffer pH 6.8 for the crystalline Form I of sotorasib disclosed in WO 2020/236947 A1 and the crystalline Form A of sotorasib of the present invention. Particle sizes of both forms were kept as similar as possible to allow for proper comparison. The respective concentrations were determined at a wavelength of 293 nm in case of the acetate buffer and at 354 nm in case of the phosphate buffer.

[4] = cited from earlier work; for hygroscopic behaviour (in words): GMS data of WO 2020/236947 A1, 0-90% RH, 25° C.; for Mass increase from 0-90% RH at 25° C.: GMS, data from paragraph [0334] on page 46 of WO 2020/236947 A1

C=CC(=O)N1CCN(c2nc(=O)n(-c3c(C)ccnc3C(C)C)c3nc(-c4c(O)cccc4F)c(F)cc23)[C@@H](C)C1 [Sotorasib Form A, 6-fluoro-7-(2-fluoro-6-hydroxyphenyl)-1-(4-methyl-2-(2-propanyl)-3-pyridinyl)-4-((2S)-2-methyl-4-(2-propenoyl)-1-piperazinyl)pyrido[2,3-d]pyrimidin-2(1H)-one]
hygroscopic behaviour (in words) ([1]; GMS, 0-90% RH, 25° C.): slightly hygroscopic
mass difference in the sorption cycle between 0 and 90% RH ([1]; GMS, 0-90% RH, (25±0.1)° C.): about 0.4 w-%
Mass increase from 0-90% RH at 25° C. ([1]; GMS, data from FIG. 4 of present invention): +0.4%
PXRD of the sample after the GMS experiment ([1]; after sorption/desorption cycle 0-90% RH, 25° C.): same PXRD
solid form by PXRD after stress storage ([2]; 25° C./60% RH): Form A
solid form by PXRD after stress storage ([2]; 30° C./65% RH): Form A
solid form by PXRD after stress storage ([2]; 40° C./75% RH): Form A
solid form by PXRD after stress storage ([2]; RT/0% RH): Form A
solid form by PXRD after stress storage ([2]; RT/97% RH): Form A
phase change by PXRD at any stress condition ([2]; all temperature and humidity stress conditions of Table 3, 30 weeks): no phase change occurred
solubility compared to crystalline Form I (in words) ([3]; acetate buffer pH 4.5, 37° C., FIG. 5): significantly increased solubility
equilibrium solubility after 24 hours compared to crystalline Form I ([3]; acetate buffer pH 4.5, 37° C.): about 3 fold
phase change by PXRD during the dissolution experiments [3]: no phase changes occurred
solubility compared to crystalline Form I (in words) ([3]; phosphate buffer pH 6.8, 37° C., FIG. 6): significantly increased solubility
equilibrium solubility after 24 hours compared to crystalline Form I ([3]; phosphate buffer pH 6.8, 37° C.): about 2 fold

C=CC(=O)N1CCN(c2nc(=O)n(-c3c(C)ccnc3C(C)C)c3nc(-c4c(O)cccc4F)c(F)cc23)[C@@H](C)C1 [Form II of WO 2020/236947 A1, 6-fluoro-7-(2-fluoro-6-hydroxyphenyl)-1-(4-methyl-2-(2-propanyl)-3-pyridinyl)-4-((2S)-2-methyl-4-(2-propenoyl)-1-piperazinyl)pyrido[2,3-d]pyrimidin-2(1H)-one]
hygroscopic behaviour (in words) [4]: hygroscopic
Mass increase from 0-90% RH at 25° C. [4]: +2-2.5%^

C=CC(=O)N1CCN(c2nc(=O)n(-c3c(C)ccnc3C(C)C)c3nc(-c4c(O)cccc4F)c(F)cc23)[C@@H](C)C1 [Form I of WO 2020/236947 A1, 6-fluoro-7-(2-fluoro-6-hydroxyphenyl)-1-(4-methyl-2-(2-propanyl)-3-pyridinyl)-4-((2S)-2-methyl-4-(2-propenoyl)-1-piperazinyl)pyrido[2,3-d]pyrimidin-2(1H)-one]
phase change by PXRD during the dissolution experiments [3]: no phase changes occurred
Mass increase from 0-90% RH at 25° C. [4]: +0.5-1.0% ^
Mass increase from 0-90% RH at 25° C. ([4]; listed as Form I): 0.5-1.0%

C=CC(=O)N1CCN(c2nc(=O)n(-c3c(C)ccnc3C(C)C)c3nc(-c4c(O)cccc4F)c(F)cc23)[C@@H](C)C1 [Form III of WO 2020/236947 A1, 6-fluoro-7-(2-fluoro-6-hydroxyphenyl)-1-(4-methyl-2-(2-propanyl)-3-pyridinyl)-4-((2S)-2-methyl-4-(2-propenoyl)-1-piperazinyl)pyrido[2,3-d]pyrimidin-2(1H)-one]
hygroscopic behaviour (in words) [4]: hygroscopic
Mass increase from 0-90% RH at 25° C. [4]: +7.0%
